Here are results for three compounds from patent US20120009280A1, “METHOD OF REDUCING THE RATE OF DEGRADATION OF A BIOLOGICAL MATERIAL” (Bio-Energy Ingredients Limited, priority 2009, published 2012).

Values joined by “and” are separate entries in the source; they are usually repeats but may differ in a detail not shown here. Equal entries are not always repeated.

What all share (type): cell-based
The test system of assay [1] is Salmonella abony NCTC 6017. The experiment in a line: Antimicrobial efficacy test of saturated aqueous solutions. On the procedure: (§1) At the same time, 1 ml of bacterial suspension was removed from the original stock suspensions and placed into 9 ml PBS to perform the initial (Time 0) count. The inoculated suspensions were then shaken for ten minutes at room temperature. After 1 and 10 minutes, 1 ml samples of the bacterial suspensions were removed from the test containers and placed into 9 ml PBS. For each diluted sample, further serial ten-fold dilutions in PBS down to 10^−5 were made and then used to prepare duplicate 1 ml pour plate counts in TSA. Pour plates were also prepared from the neat (undiluted) sample. For Clostridium difficile, 0.1 ml spread plates were prepared on FAA instead of 1 ml pour plates due to the presence of blood in the agar. The plates were incubated at 30-35° C. for approximately 24 hours (48 hours for Clostridium difficile).
(§2) Following incubation, the plates were counted. Optimally, plates with counts of 30-300 colonies were used to calculate the counts at each sampling time.

For assay [2], the system named is Clostridium difficile ATCC 43255. Described as above. The note with it: for Corrected count cfu/mL: saturated aqueous solution, inoculum (t = 0) 8.20 × 10^7, replicates A, B; for reduction: saturated solution 8.35 g/L (0.037 M). Here is the method: as §1, with “Escherichia coli NCIMB 8545 and Salmonella abony NCTC 6017 were subcultured onto Tryptone Soya Agar (TSA) and the plates incubated at 30-35° C. for approximately 24 hours. Clostridium difficile ATCC 43255 was subcultured onto Fastidious Anaerobe Agar (FAA)+5% defibrinated horse blood and the plates incubated at 30-35° C. for approximately 48 hours. After this time, surface growth was harvested and directly suspended into sterile distilled water and standardised to give 30-45% light transmission at 520 nm on a Jenway 6105 Spectrophotometer—an approximate yield of 2×10^8 cfu/ml. […] […]. At” for “At”
as §2

In assay [3] the test system is Escherichia coli NCIMB 8545. Described as above. The note with it: for Corrected count cfu/mL: saturated aqueous solution, inoculum (t = 0) 6.95 × 10^8, replicates A, B; for colonies on plates: saturated solution. On the procedure: Escherichia coli NCIMB 8545 was subcultured onto TSA and the plates incubated at 30-35° C. for approximately 24 hours. After this time, surface growth was harvested and directly suspended into sterile distilled water and standardised to give 30-45% light transmission at 520 nm on a Jenway 6105 Spectrophotometer—an approximate yield of 2 (10^8) cfu/ml. A 0.1 ml aliquot of this suspension was inoculated into 9.9 ml of CaOH solution. This was performed in duplicate. At the same time, 1 ml of bacterial suspension was removed from the original stock suspension and placed into 9 ml PBS to perform the initial (Time 0) count. The inoculated calcium hydroxide suspensions were then shaken for one hour at room temperature. After this time 1 ml samples of the bacterial suspension were removed from the test containers and placed into 9 ml PBS. For each diluted sample, further serial ten-fold dilutions in PBS down to 10^−5 were made and then used to prepare duplicate 1 ml pour plate counts in TSA. Pour plates were also prepared from the neat (undiluted) sample. The plates were incubated at 30-35° C. for approximately 24 hours. Following incubation, the plates were counted. Optimally, plates with counts of 30-300 colonies were used to calculate the counts at each sampling time.
Escherichia coli NCIMB 8545 was subcultured onto TSA and the plates incubated at 30-35° C. for approximately 24 hours. After this time, surface growth was harvested and directly suspended into sterile distilled water and standardised to give 30-45% light transmission at 520 nm on a Jenway 6105 Spectrophotometer—an approximate yield of 2×10^8 cfu/ml. […] […]. At the same time, 1 ml of bacterial suspension was removed from the original stock suspension and placed into 9 ml PBS to perform the initial (Time 0) count. The inoculated suspensions were then shaken for one hour at room temperature. After both 10 minutes and one hour, 1 ml samples of the bacterial suspension were removed from the test containers and placed into 9 ml PBS. For each diluted sample, further serial ten-fold dilutions in PBS down to 10^−6 were made and then used to prepare duplicate 1 ml pour plate counts in TSA. Pour plates were also prepared from the neat (undiluted) sample. The plates were incubated at 30-35° C. for approximately 24 hours.
as §2
Escherichia coli NCIMB 8545 and Salmonella abony NCTC 6017 were subcultured onto Tryptone Soya Agar (TSA) and the plates incubated at 30-35° C. for approximately 24 hours. Clostridium difficile ATCC 43255 was subcultured onto Fastidious Anaerobe Agar (FAA)+5% defibrinated horse blood and the plates incubated at 30-35° C. for approximately 48 hours. After this time, surface growth was harvested and directly suspended into sterile distilled water and standardised to give 30-45% light transmission at 520 nm on a Jenway 6105 Spectrophotometer—an approximate yield of 2×10^8 cfu/ml. […] […]. At the same time, 1 ml of bacterial suspension was removed from the original stock suspensions and placed into 9 ml PBS to perform the initial (Time 0) count. The inoculated suspensions were then shaken for ten minutes at room temperature. After 1 and 10 minutes, 1 ml samples of the bacterial suspensions were removed from the test containers and placed into 9 ml PBS. For each diluted sample, further serial ten-fold dilutions in PBS down to 10^−5 were made and then used to prepare duplicate 1 ml pour plate counts in TSA. Pour plates were also prepared from the neat (undiluted) sample. For Clostridium difficile, 0.1 ml spread plates were prepared on FAA instead of 1 ml pour plates due to the presence of blood in the agar. The plates were incubated at 30-35° C. for approximately 24 hours (48 hours for Clostridium difficile).

For the next assay, the system named is Escherichia coli. The experiment in a line: Spiking test of agar plates with Escherichia coli (kill versus inhibition). The note with it: for Individual count / Mean count: spiking test. Here is the method: (§3) When performing total viable counts (TVCs), the agar plates (when they were molten and containing 1 ml of the test sample dilution) were spiked with bacterial organisms (E. Coli and P. aeruginosa) of a known concentration. If the organisms grew, this would indicate that the conditions in the agar plate had not inhibited them. A control with no sample was run at the same time. […]
(§4) The plates were incubated at 30-35° C. for approximately 24 hours after which time the bacterial colonies were counted.
. […] This was performed in duplicate.

Another assay relates to total micro-organism. The assay can be described thus: Total microbial (plate) count of spent brewer's / wet distiller's grains stored at ambient temperature. The note with it: dose 10% w/w; distiller's grains not de-watered, Examples 16-18.
The test system of another assay is Pseudomonas aeruginosa. The experiment in a line: Spiking test of agar plates with Pseudomonas aeruginosa (kill versus inhibition). The note with it: treated sample with 5% (w/w) calcium oxide, Day 9, all sample dilutions. On the procedure:
as §3, §4

Setting [4] is: 10 minutes incubation, Example 13.
Where [5] appears, read: 10 minutes incubation, time 0 count 4.00×10^6 cfu/ml, Example 12.
[6] abbreviates: one hour incubation, time 0 count 4.00×10^6 cfu/ml, Example 12.
[7] abbreviates: E. coli NCIMB 8545, dilution −1 in PBS.
Where [8] appears, read: E. coli NCIMB 8545, dilution −2 in PBS.
[9] abbreviates: E. coli NCIMB 8545, dilution −3 in PBS.
Setting [10] is: E. coli NCIMB 8545, dilution −4 in PBS.
[11] abbreviates: E. coli NCIMB 8545, dilution −5 in PBS.
The mark [12] stands for this setting: E. coli NCIMB 8545, saturated solution Neat (control mean 215).

In the case of `[Ca+2].[OH-].[OH-]` [calcium hydroxide], the “Corrected count cfu/mL” value in assay [1] (saturated aqueous solution, one minute treatment, inoculum (t = 0) 7.00 × 10^8, replicates A, B) was 59 cfu/mL and 11 cfu/mL; in assay [2] (one minute treatment) it was 8.50 × 10^2 cfu/mL and 9.50 × 10^2 cfu/mL; in assay [2] (ten minute treatment), 1.10 × 10^2 cfu/mL and 1.20 × 10^2 cfu/mL; in assay [3] (one minute treatment), 1.35 × 10^6 cfu/mL and 1.23 × 10^5 cfu/mL. Besides, the colonies on plates entry in assay [1] (saturated solution, 10 minutes incubation) is on record as “No colonies”; in assay [3] (setting [4]), “No colonies”; in assay [3] (setting [5]) it was “No colonies”; in assay [3] (setting [6]) it was “No colonies”. Moreover, the Individual count with Escherichia coli (setting [7]) was 197 and 209; in the assay with Escherichia coli (setting [8]) it was 194 and 203; with Escherichia coli (setting [9]) it was 192 and 240; with Escherichia coli (setting [10]) it was 194 and 196; in the assay with Escherichia coli (setting [11]) it was 235 and 194; in the assay on Escherichia coli (setting [12]) it was 216 and 191. Besides, the Mean count in the assay with Escherichia coli (setting [7]) stood at 203; in the assay on Escherichia coli (setting [8]), 199; in the assay with Escherichia coli (setting [9]), 216; in the assay with Escherichia coli (setting [10]), 195; with Escherichia coli (setting [11]), 215; in the assay on Escherichia coli (setting [12]), 205.

On to `[O]=[Ca]` [calcium oxide], for which the “inhibitory effect on test organism in spiking test” value with Escherichia coli (treated sample with 5% (w/w) calcium oxide, Day 9, all sample dilutions) is recorded as “did not demonstrate an inhibitory effect”. In the assay with total micro-organism, the “preservation time with total microbial counts <100 cfu/g” value is reported as “≧9 weeks” and the “preservation time with total microbial counts <1000 cfu/g” value is given as “≧9 weeks”. In addition, the “inhibitory effect on test organism in spiking test” value in the assay on Pseudomonas aeruginosa is listed as “did not demonstrate an inhibitory effect”.

With `[Ca+2].[O-]CC(O)CO.[O-]CC(O)CO` [calcium diglyceroxide], the “Corrected count cfu/mL” value in assay [2] (one minute treatment) is 1.30 × 10^3 cfu/mL and 7.00 × 10^2 cfu/mL; in assay [2] (ten minute treatment), 85 cfu/mL and 50 cfu/mL; in assay [3] (one minute treatment) it was 0 cfu/mL and 1 cfu/mL. The reduction in assay [2] (one minute treatment) was at least 4 log10; in assay [2] (ten minute treatment), 6 log10; in assay [3] (saturated solution 8.35 g/L (0.037 M), one minute treatment) it was at least 4 log10. The colonies on plates entry in assay [3] (setting [4]), in assay [3] (setting [5]) and in assay [3] (setting [6]) was “No colonies” throughout.
